In a melting point compilation (Tetko et al.; mined from patent text by program, amines drawn as free bases though some values may be those of a salt) one finds melting point data, which are given here for 88 molecules.

The term melting point denotes the temperature, or range, at which the solid turns liquid. `COc1cc2c(cc1OC)CN(c1nc(N)c3cc(OC)c(OC)c(OC)c3n1)CC2` returned a melting point of 204 °C. `CCn1nccc1-c1ccc2[nH]c3c(cc(-c4ccc(Cl)cc4Cl)c(=O)n3C)c2c1` gave a melting point of 255 to 258 °C. The molecule `CCOC(=O)c1ccc2cccc(N)c2c1` displayed a melting point of 97 to 98 °C. For `O=[N+]([O-])c1ccc2c(c1)C1OC1CCO2` (stereo not drawn) the value was 121 to 123 °C; for `Cc1ccnc2c1C(=O)c1nccc(Cl)c1C2=O`, greater than 300 °C. The molecule `CCC(CC(=O)OC)Sc1c(C(N)=O)sc2ccc(OC)cc12` (stereo not drawn) gave a melting point of 134 to 136 °C. For `Cc1n[nH]c(COc2nn3c(-c4ccccc4)nnc3cc2-c2ccccc2)n1` the value was 233 to 235 °C. With `Nc1c(-c2ccccc2)cc(-c2ccccc2)c2cccnc12` the figure was 100 to 102 °C; with `O=C(O)Cc1ccc(NC(=O)C(COC2CCCCO2)NS(=O)(=O)c2ccc(Cl)c([N+](=O)[O-])c2)cc1` (racemic), 131 to 140 °C. In turn, `O[C@H](CN[C@H]1CCCc2ccccc21)COc1cccc2ccccc12` registered a melting point of 107 to 109 °C. Consider `Nc1ncnc2cc(CCl)ccc12`, for which the melting point is greater than 300 °C. With `COC(=O)C(=O)c1ccc(OCCOc2cc(OC)c(OC)c(OC)c2)cc1`, the melting point was 82 to 83 °C. Take `CC1SC(=O)NN=C1c1ccc2c(c1)C(=Cc1cccnc1)C(=O)N2` (stereo not drawn): the melting point came out at 285 °C.

The molecule `COc1ccc(C(=O)N2C(C)Cc3ccccc3C2CNC(=O)c2cc(OC)c(OC)c(OC)c2)cc1` (stereo not drawn) registered a melting point of 213 to 215 °C. For the molecule `COc1ccc(/C=C/c2cc(OC)c(OC)c(OC)c2)cc1`, the melting point was in the range of 152 to 155 °C. `N#CC(Oc1nsnc(Cl)c1=O)c1cccc(Oc2ccccc2)c1` (stereo not drawn) returned a melting point of 146 to 148 °C. As for `COc1cc2c(Nc3ccc(Sc4nccn4C)c(Cl)c3)c(C#N)cnc2cc1-c1csc(CN2CCN(C)CC2)c1`, the melting point fell in the range of 162 to 164 °C. Regarding `CCCc1nc(C#N)c(C#N)n1C(c1ccccc1)(c1ccccc1)c1ccccc1`, the melting point was 107 °C. `Cc1nc(C)c(CBr)nc1C` had a melting point of 41.2 to 44 °C. `CC(=O)n1c(=O)n(-c2ccc(Cl)cc2)c(=O)n1C(C)=O` registered a melting point of 148 to 150 °C. For `CCOc1ccc(-c2nc(-c3ccc(OC4OC(CO)C(O)C(O)C4O)cc3)cs2)cc1OCC` (stereo not drawn) the value was 138 to 140 °C. `O=S1(=O)c2cccc3cccc(c23)N1CCN1CC=C(Cc2c[nH]c3ccc(F)cc23)CC1`: the melting point is 128 °C. With `CSCCN1CSC(=Cc2cc(C(C)(C)C)c(O)c(C(C)(C)C)c2)C1=O` the figure was 166 to 168 °C; with `O=C(Nc1ccc2ccccc2c1-c1c(P(=O)(c2ccccc2)c2ccccc2)ccc2ccccc12)c1ccccc1`, 247 °C; with `Fc1ccccc1-c1ncn(CCCCN2CCOCC2)c1-c1ccncc1`, 103 to 104 °C. Take `N#CCCNC(=O)c1cccc(-c2ccc3c(c2)N(CCc2ccc(Cl)cc2Cl)CC3)c1`: the melting point was in the range of 147 to 149 °C. With `ON=C1CCn2c1cc1ccccc12`, the melting point is greater than 220 °C. For the molecule `O=C(NC(Cc1ccc(OCc2ccccc2)cc1)C(=O)O)c1cn2cc(-c3cccnc3)ccc2n1` (stereo not drawn), the melting point stood at 244 °C. `CCC(O)(CC)CC/C=C(\C)c1ccc(COc2ccc(CO)c(CO)c2)s1` showed a melting point of 100 to 102 °C. `O=c1[nH]c2cccc(F)c2c(=O)n1CCCN1CC=C(c2ccc(Cl)cc2)CC1`: the melting point lay within 201 to 202 °C. Molecule `CCOC(=O)C(C#N)=CC=Cc1ccc(C(C)(C)C)cc1` returned a melting point of 65 to 70 °C. With `CC(C)c1ccc(C(=O)C(c2ccccc2)C2CCCC2)c(C(C)C)c1OS(N)(=O)=O` (stereo not drawn) the figure was 142 to 143 °C. For `CCN1C(=O)C(=CC=C2C=C(c3ccc(OC)cc3)C=C3N2c2ccccc2C3(C)C)SC1=S` the value was 210 to 211 °C. In the case of `CCOC(=O)c1cn(-c2cc(OC)c(F)cc2[N+](=O)[O-])c2c(Cl)c(F)c(F)cc2c1=O`, the melting point was in the range of 244 to 248 °C. The molecule `CCOC(=O)C(=O)c1cn(CCCNC(=O)OC(C)(C)C)c2ccccc12` gave a melting point of 89 to 90 °C.

`C=C(C)C(=O)Oc1ccc(C(=O)c2ccccc2)cc1` had a melting point of 69.5 to 70.5 °C. For `Clc1ccccc1N=C1NCCN1` the value was 133 to 134 °C; for `Cc1cc(C)c2nc(NC3CCN(CCCS(N)(=O)=O)CC3)n(Cc3nc(C)ccc3O)c2c1`, 180 °C; for `CC(C)(C1OCCO1)C(O)C(Cc1ccc(Cl)cc1Cl)n1cncn1` (stereo not drawn), 178 to 181 °C. Turning to `Cc1oc(-c2ccccc2)nc1COc1nn(Cc2ccc(Oc3ccccc3)cc2)cc1CCC(=O)O`, the melting point was in the range of 120 to 121 °C. As for `CCOC(=O)COc1cc(-n2c(=O)cc(C(F)(F)F)n(C)c2=O)c(F)cc1Cl`, the melting point lay in the range of 98 to 101 °C. With `Cc1nc(-c2cc(-n3c(=O)cc(C(F)(F)F)n(C)c3=O)ccc2Cl)sc1C`, the melting point was found to be 200 °C. With `NCc1cccc(OCc2nc(-c3ccc(Cl)cc3)cs2)c1`, the melting point was in the range of 117 to 118 °C. For `COc1cc(C)c(C(=O)c2c(Cl)cccc2Cl)c(OC)c1OC` the value was 92 °C; for `COc1cccc2c1C(NC(C)=O)=NS2(=O)=O`, 242 to 245 °C; for `CCn1c(=O)c(C(=O)NCCO)c(NCCO)c2cnc(-c3ccccc3)nc21`, 250 to 253 °C.

`O=S1(=O)c2ccccc2Nc2nccnc21` registered a melting point of 316 to 318 °C.

In the case of `COc1ccc(-c2nc(N3CCOCC3)c3c(C)c(C#N)sc3n2)cc1`, the melting point fell in the range of 204 to 206 °C. With `ClCCCOc1cc(Cl)c(OCCCCl)cc1Cl`, the melting point is 162 °C. Molecule `CCNc1nc(Cl)c(Cl)c(N2CCN(CC[C@H]3CC[C@H](NC(=O)OC(C)(C)C)CC3)CC2)n1` came in with a melting point of 197 to 199 °C.

As for `COC(=O)c1c(OC)cccc1C(=O)O`, the melting point lay in the range of 140 to 141 °C. With `O=C(O)C(O)C(O)C(=O)NCc1ccc2c(c1)-c1n[nH]c(=O)c3cccc(c13)O2` (stereo not drawn), the melting point lay within 181 to 185 °C. In turn, `CN1Cc2cccnc2C(N2CC[N+]([O-])(C(=O)Cc3ccncc3)CC2)c2ccc(Cl)cc21` (stereo not drawn) gave a melting point of 115 to 118 °C. For `COc1ccc(CS[C@@H]2CN[C@H](C(=O)O)C2)cc1`, the melting point is 198 to 200 °C. Consider `Cc1ccc(C2=NNC(=O)CC2)cc1OCC1CO1` (stereo not drawn), for which the melting point was in the range of 128 to 132 °C. The molecule `CC(C)(C)c1nc(C=CC(COc2ccccc2)=NO)nc(C(C)(C)C)c1O` showed a melting point of 130 to 135 °C. As to `CC(C)c1c2n(c(=O)c3ccccc13)CCCS2`, the melting point lay in the range of 123 to 124 °C. For the molecule `COc1ccc(Cl)cc1-n1cc[nH]c1=O`, the melting point lay within 133 to 134 °C. With `CS(=O)(=O)Nc1ccc(Sc2cnc(N)s2)cc1` the figure was 185 to 187 °C.

`C=CC(=O)NCc1c(-c2ccccc2)noc1C` came in with a melting point of 149 to 151 °C. In turn, `CCOC(=O)c1ccc(OCCC2CCN(c3ccc(F)nn3)CC2)cc1` displayed a melting point of 132 °C. In the case of `CCS(=O)(=O)c1nsc(NC(=O)N(C)C)c1C#N`, the melting point lay in the range of 188 to 189 °C.

`NS(=O)(=O)c1cc(C(O)CN(Cc2ccccc2)Cc2ccccc2)ccc1N1CCCCC1` (stereo not drawn): the melting point lay within 133 to 142 °C.

For `Cc1c(N(C)C)ccc([N+](=O)[O-])c1CO`, the melting point lay in the range of 42 to 43 °C. In turn, `O=c1c(Cl)c(CCl)nc2scnn12` registered a melting point of 193 to 195 °C. For `C[C@]12CCC(=O)N[C@@H]1CCc1cc(C=O)ccc12` the value was 185 to 189 °C. With `CCCCCN1C(=O)C2(COc3cc(-c4ccncc4)ccc32)c2ccccc21` (stereo not drawn), the melting point was in the range of 107 to 110 °C.

Molecule `Cc1ccccc1C(Oc1cc(OCc2ccccc2)ccc1C#N)C(=O)O` (racemic) displayed a melting point of 128 to 130 °C.

`CC(=O)N1CCC(CCC(=O)c2ccc(N(C)C)cc2)CC1` had a melting point of 158 to 160 °C. With `CCOC(=O)CC(=O)N=C(SC)N(C)N=Cc1ccccc1` the figure was 74 to 75 °C; with `CCCC12C=CC=CC1C(=O)N(c1nc(C#N)c(C#N)[nH]1)C2=O` (stereo not drawn), 134 to 135 °C. With `CCCOCCOc1ccc(-c2ccc3c(c2)C=C(C(=O)Nc2ccc(CN(C)C4CCOCC4)cc2)CCS3(=O)=O)cc1` the figure was 195 to 197 °C; with `NNC(=O)Nc1ccc(-n2ncn(-c3ccc(OCC(F)(F)C(F)F)cc3)c2=O)cc1`, greater than 350 °C; with `CN1CC=C(c2c[nH]c3ccc(NC(=O)c4ccc(F)cc4Cl)cc23)CC1`, 212 to 222 °C.

In the case of `C=CC[C@H]1Cc2c(OCOC)cccc2C(=O)O1`, the melting point is 74 to 75 °C. As to `CCC1C(=O)Nc2ccc(Br)cc21` (stereo not drawn), the melting point was in the range of 118 to 120 °C. With `CC(CC(=O)c1ccc(Br)cc1)C(=O)N1CCCC1C(=O)O` (stereo not drawn) the figure was 136 to 138 °C; with `OC1CSC(Oc2cc(-c3ccnc(F)c3)ccc2Cl)C(O)C1O` (stereo not drawn), 162 °C; with `c1cc(-c2ccnc3nccn23)ccn1`, 244 to 245 °C. In turn, `COc1ccc(CN(C)CC=CCc2ccc(NC(=O)c3cccc4c(=O)c5ccccc5[nH]c34)cc2)cc1OC` returned a melting point of 140 °C. Turning to `C=Cc1ccc2c3ccc(C=C)cc3n(CC(CC)CCCC)c2c1` (stereo not drawn), the melting point was in the range of 59 to 60 °C. Molecule `CC(C)C(c1ccccc1N1CCCCC1)C(C(N)=O)c1ccc(C(=O)O)cc1` (stereo not drawn) came in with a melting point of 215 to 217 °C. Consider `CCCOc1cc(C(=O)NC2CC(C)(C)NC(C)(C)C2)ccc1-c1cc2cc(Cl)c(Cl)cc2[nH]1`, for which the melting point is greater than 250 °C. With `N#Cc1ccc2c(c1)C(=O)N1CCC[C@@H]1CO2` the figure was 164 to 165 °C; with `CCC(N)(CC)Cc1c[nH]c2ccccc12`, 92 to 94 °C. With `COC(=O)Cc1cccc(C(=O)c2ccccc2)c1N`, the melting point is 52 to 54 °C. In turn, `FC(F)(F)Cn1cc(C#Cc2cccc(OCC3CC3)c2)cn1` showed a melting point of 63 to 65 °C. `O=C(O)c1ccc(CCCc2c(CCNS(=O)(=O)Cc3ccc(Cl)c(Cl)c3)n(C(c3ccccc3)c3ccccc3)c3ccc(Cl)cc23)cc1`: the melting point was 190 °C.
